Values of other authors in PMC11711049 (Cancer Science, 2024).

What was measured:
[1] = system: cholangiocarcinoma with an FGFR2 gene fusion or other rearrangement; settings: cholangiocarcinoma patients; cited from earlier work
cholangiocarcinoma = settings: first‐line, patients with cholangiocarcinoma; cited from earlier work

| Compound | median OS [1] [months] | median PFS [1] [months] | response rate / ORR [1] [%] | ORR (cholangiocarcinoma) [%] | median OS (cholangiocarcinoma) [months] | median PFS (cholangiocarcinoma) [months] |
| --- | --- | --- | --- | --- | --- | --- |
| CCN1C(=O)N(c2c(F)c(OC)cc(OC)c2F)Cc2cnc3[nH]c(CN4CCOCC4)cc3c21 [pemigatinib, Pemigatinib] | 21.1 | 6.9 | 35.5 |  |  |  |
| gemcitabine and cisplatin |  |  |  | 26 | 11.7 | 8.0 |
